What was measured:
[1] = system: genotype 1a (H77) wild-type transient HCV replicon in Huh-7-derived cells; experiment: Transient-transfected HCV replicon, genotype 1a wild type; type: cell-based; conditions: Hepatitis C virus; transient-transfected replicon genotype 1a wild type, 72 h; read-out: EC50 1A WT
[2] = system: genotype 1b wild-type transient HCV replicon in Huh-7-derived cells; experiment: Transient-transfected HCV replicon, genotype 1b wild type; type: cell-based; conditions: Hepatitis C virus; transient-transfected replicon genotype 1b wild type, 72 h; read-out: EC50 1B WT
[3] = system: genotype 1a stable HCV replicon (H77) in Huh-7-derived cells; experiment: Stable subgenomic HCV replicon, genotype 1a, Renilla luciferase; type: cell-based; conditions: Hepatitis C virus, stable replicon genotype 1a, 72 h, read-out: EC50 1A RLUC
Method: (§1) Antiviral potency (EC50) was determined in both stable subgenomic HCV replicon cell lines and transient-transfected HCV replicon cells. The term half maximal effective concentration (EC50) refers to the concentration of a drug which induces a response halfway between the baseline and maximum after the exposure time specified below.
(§2) Stable subgenomic HCV replicons for genotype 1a, 1b, 2a, 3a, and 4a were established in Huh-7-derived cells as described by Lohmann et al (Lohmann V, Korner F, Koch J, et al Replication of subgenomic hepatitis C virus RNAs in a hepatoma cell line. Science 1999; 285:119-3). Each stable cell line contains a bicistronic HCV replicon that encodes a humanized Renilla luciferase (hRLuc) reporter gene fused to a selectable neomycin-resistance gene, followed by an EMCV IRES and the NS3-NS5B coding region of HCV. […] Luciferase activity was measured as a marker for intracellular HCV replication levels.
(§3) The genotype 1a stable replicon was derived from the H77 HCV strain and contained adaptive mutations P1496L and S2204I. The genotype 1b stable replicon was derived from the Con1 HCV strain and contained adaptive mutations E1202G, T1280I, and K1846T. […] The genotype 3a stable replicon was derived from the S52 HCV strain and contained adaptive mutations P1121 L, A1198T and S2210I (equivalent to S2204I in genotype 1). The genotype 4a stable replicon was derived from the ED43 HCV strain and contained adaptive mutations Q1691R and S2204I. All replicon cell lines were propagated in Huh-7-derived cells and maintained in Dulbecco's modified Eagle's Medium (DMEM) supplemented with 10% fetal bovine serum (FBS) and 0.5 mg/ml G418.
(§4) To perform EC50 assays, cells from each HCV replicon were dispensed into 384-well plates. Compounds were dissolved in DMSO at a concentration of 10 mM and diluted in DMSO using an automated pipetting instrument. Three-fold serially diluted compounds were directly added to the cells using an automated instrument. DMSO was used as a negative (solvent; no inhibition) control, and a combination of three HCV inhibitors including a protease inhibitor; an NS5A inhibitor and a nucleoside inhibitor was used at concentrations >100×EC50 as a positive control (100% inhibition). Seventy-two hours later, cells were lysed and Renilla luciferase activity were quantified as recommended by the manufacturer (Promega-Madison, Wis.). Non-linear regression was performed to calculate […], values.

[4] = system: genotype 3a stable HCV replicon (S52) in Huh-7-derived cells; experiment: Stable subgenomic HCV replicon, genotype 3a, Renilla luciferase; type: cell-based; conditions: Hepatitis C virus, 72 h, read-out: EC50 3A RLUC
Method: as §1, §2, §3, §4

[5] = biological target: T1, NS3 genotype 3a protease (UniProt Q81258); experiment: Ki determination, NS3 protease genotype 3a (fluorogenic depsipeptide substrate); type: biochemical, hepatitis C virus; conditions: NS3 protease domain genotype 3a, NS4A peptide
T1 construct: Purified NS3 protease domain (amino acids 1-181) of the genotype 1b and 3a virus were generated as above; fused on or other part: N-terminal hexahistidine tag with an rTEV protease cleavage site (vector p28-N6H-Tev-NS3(181)3)
T1 sequence (Q81258 1033-1663): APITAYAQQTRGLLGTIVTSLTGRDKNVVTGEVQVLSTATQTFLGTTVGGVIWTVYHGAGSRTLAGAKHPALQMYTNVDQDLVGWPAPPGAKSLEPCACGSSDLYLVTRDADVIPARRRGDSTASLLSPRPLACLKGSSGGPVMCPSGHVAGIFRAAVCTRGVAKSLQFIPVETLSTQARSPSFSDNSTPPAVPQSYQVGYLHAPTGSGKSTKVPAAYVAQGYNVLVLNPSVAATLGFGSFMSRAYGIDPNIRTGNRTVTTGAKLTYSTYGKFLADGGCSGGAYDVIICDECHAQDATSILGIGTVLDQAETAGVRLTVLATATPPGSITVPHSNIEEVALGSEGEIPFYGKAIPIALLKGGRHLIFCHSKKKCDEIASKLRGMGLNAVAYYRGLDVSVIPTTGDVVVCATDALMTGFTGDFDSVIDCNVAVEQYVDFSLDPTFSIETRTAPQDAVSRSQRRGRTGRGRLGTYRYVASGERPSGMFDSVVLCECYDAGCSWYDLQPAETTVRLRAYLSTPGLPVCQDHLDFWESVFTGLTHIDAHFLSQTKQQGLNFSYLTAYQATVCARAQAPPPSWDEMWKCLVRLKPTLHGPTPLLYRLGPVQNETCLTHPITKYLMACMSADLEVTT
Excerpt: Ki Determination for Genotypes 1b and 3a NS3 Protease.
Purified NS3 protease domain (amino acids 1-181) of the genotype 1b and 3a virus were generated as above. The internally quenched fluorogenic depsipeptide substrate Ac-DED(Edans)-EEAbuψ[COO]ASK(Dabcyl)-NH2 and a synthetic peptide containing the hydrophobic core residues of the NS4A protein cofactor ([…]; NS4A peptide) were obtained from Anaspec, Inc. (San Jose, Calif.). Other chemicals and biochemicals were of reagent grade or better and were purchased from standard suppliers.
Reactions were run at room temperature in buffer consisting of 50 mM HEPES, 40% glycerol, 0.05% Triton X-100, 10 mM DTT, and 10% DMSO. The final assay solutions contained 50 pM NS3 genotype 1b protease or 200 pM genotype 3a protease, 20 μM NS4A peptide, and 4 μM substrate (genotype 1b) or 2 μM substrate (genotype 3a). Inhibitor concentrations varied from 100 nM to 5 pM in 3-fold dilutions, and no-inhibitor controls were included.
Compound dilutions were made in DMSO at 20× final concentration. Reaction mixtures were prepared in 96-well assay plates. A solution of enzyme and NS4A peptide in assay buffer (25 μL volume with both reagents at 4× final concentration) was mixed with 45 μL assay buffer and 5 μL of either inhibitor or DMSO, and pre-incubated at room temperature for 1 hour. The reaction was started by addition of 25 μL substrate solution at 4× final concentration. Plates were mixed vigorously for 5-10 seconds and reactions were allowed to proceed for 90 minutes. Fluorescence was measured every 30 s between 90 and 120 minutes reaction time using a Tecan InfiniTe M1000 or PerkinElmer Envision multimode plate reader with an excitation wavelength of 340 nm and an emission wavelength of 490 nm.
Rates were calculated from the progress curves at steady state, in the time frame of 90-120 minutes after addition of substrate. To determine the Ki, rates were plotted as a function of inhibitor concentration, and the data were fit with equation 1 (Morrison, J. F., Biochimica et Biophysica Acta 1969, 185, 269-286) to calculate Ki^app using GraphPad Prism 5. Active fraction of enzyme was determined by active site titration with known potent inhibitors. Ki was calculated from Ki^app/(1+[[S]/Km]).

SMILES	EC50 [1]	EC50 [2]	EC50 [3]	EC50 [4]	Ki [5]
COc1ccc2nc3c(nc2c1)O[C@@H]1C[C@@H](C(=O)N[C@]2(C(=O)NS(=O)(=O)C4CC4)C[C@H]2C(F)F)N(C1)C(=O)[C@H](C(C)(C)C)NC(=O)O[C@@H]1[C@H]2CC[C@H](C2)[C@H]1CCCCC3 [Example 4, (1R,4S,4aR,8S,11S,13R,25aR)-8-tert-butyl-N-[(1R,2R)-1-[(cyclopropylsulfonyl)carbamoyl]-2-(difluoromethyl)cyclopropyl]-17-methoxy-6,9-dioxo-2,3,4,4a,6,7,8,9,12,13,21,22,23,24,25,25a-hexadecahydro-1H,11H-1, 4:10,13-dimethanoquinoxalino[2,3-k][1,10,3,6]benzodioxadiazacyclononadecine-11-carboxamide]	2.6 nM	1.2 nM	4.3 nM	429 nM	0.21 nM
COc1ccc2nc3c(nc2c1)O[C@@H]1C[C@@H](C(=O)N[C@]2(C(=O)NS(=O)(=O)C4CC4)C[C@H]2C(F)F)N(C1)C(=O)[C@H](C(C)(C)C)NC(=O)O[C@@H]1C[C@@H]2C[C@@H]2[C@H]1CCCCC3(F)F (racemic) [Example 9, (1aS,2aR,6S,9S,11R,23aR,23bS)-6-tert-butyl-N-[(1R,2R)-1-[(cyclopropylsulfonyl)carbamoyl]-2-(difluoromethyl)cyclopropyl]-19,19-difluoro-15-methoxy-4,7-dioxo-1a,2,2a,4,5,6,7,10,11,19,20,21,22,23,23a,23b-hexadecahydro-1H,9H-8,11-methanocyclopropa[4′,5′]cyclopenta[1′,2′:18,19][1,10,3,6]dioxadiazacyclononadecino[11,12-b]quinoxaline-9-carboxamide]	1.3 nM	0.71 nM	1.7 nM	6.6 nM	0.02 nM
COc1ccc2cc3c(nc2c1)O[C@@H]1C[C@@H](C(=O)N[C@]2(C(=O)NS(=O)(=O)C4CC4)C[C@H]2C(F)F)N(C1)C(=O)[C@H](C(C)(C)C)NC(=O)O[C@@H]1C[C@@H]2C[C@@H]2[C@H]1CCCCC3 [Example 21, (1aS,2aR,6S,9S,11R,23aR,23bS)-6-tert-butyl-N-[(1R,2R)-1-[(cyclopropylsulfonyl)carbamoyl]-2-(difluoromethyl)cyclopropyl]-15-methoxy-4,7-dioxo-1a,2,2a,4,5,6,7,10,11,19,20,21,22,23,23a,23b-hexadecahydro-1H,9H-8,11-methanocyclopropa[4′,5′]cyclopenta[1′,2′:18,19][1,10,3,6]dioxadiazacyclononadecino[11,12-b]quinoline-9-carboxamide]	1.5 nM	0.61 nM	1.6 nM	115 nM	0.1 nM
CC(C)(C)[C@@H]1NC(=O)O[C@@H]2C[C@@H]3C[C@@H]3[C@H]2CCCCCc2nc3ccc(Cl)cc3nc2O[C@@H]2C[C@@H](C(=O)N[C@]3(C(=O)NS(=O)(=O)C4CC4)C[C@H]3C(F)F)N(C2)C1=O [Example 19, (1aS,2aR,6S,9S,11R,23aR,23bS)-6-tert-butyl-15-chloro-N-[(1R,2R)-1-[(cyclopropylsulfonyl)carbamoyl]-2-(difluoromethyl)cyclopropyl]-4,7-dioxo-1a,2,2a,4,5,6,7,10,11,19,20,21,22,23,23a, 23b-hexadecahydro-1H,9H-8,11-methanocyclopropa[4′,5′]cyclopenta[1′,2′:18,19][1,10,3,6]dioxadiazacyclononadecino[11,12-b]quinoxaline-9-carboxamide]	1.3 nM	1.1 nM	1.4 nM	82 nM	0.06 nM
CC(C)(C)[C@@H]1NC(=O)O[C@@H]2C[C@@H]3C[C@@H]3[C@H]2CC/C=C/C(F)(F)c2nc3ccc(C#N)cc3nc2O[C@@H]2C[C@@H](C(=O)N[C@]3(C(=O)NS(=O)(=O)C4(C)CC4)C[C@H]3C(F)F)N(C2)C1=O [Example 13, (1aS,2aR,6S,9S,11R,20E,23aR,23bS)-6-tert-butyl-15-cyano-N-[(1R,2R)-2-(difluoromethyl)-1-{[(1-methylcyclopropyl)sulfonyl]carbamoyl}cyclopropyl]-19,19-difluoro-4,7-dioxo-1a,2,2a,4,5,6,7,10,11,19,22,23,23a,23b-tetradecahydro-1H,9H-8,11-methanocyclopropa[4′,5′]cyclopenta[1′,2′18,19][1,10,3,6]dioxadiazacyclononadecino[11,12-b]quinoxaline-9-carboxamide]	2.8 nM	0.99 nM	3.4 nM	7.2 nM	0.03 nM
CC(C)(C)[C@@H]1NC(=O)O[C@@H]2C[C@@H]3C[C@@H]3[C@H]2CCCCC(F)(F)c2nc3ccc(C#N)cc3nc2O[C@@H]2C[C@@H](C(=O)N[C@]3(C(=O)NS(=O)(=O)C4(C)CC4)C[C@H]3C(F)F)N(C2)C1=O [Example 14, (1aS,2aR,6S,9S,11R,23aR,23bS)-6-tert-butyl-15-cyano-N-[(1R,2R)-2-(difluoromethyl)-1-{[(1-methylcyclopropyl)sulfonyl]carbamoyl}cyclopropyl]-19,19-difluoro-4,7-dioxo-1a,2,2a,4,5,6,7,10,11,19,20,21,22,23,23a,23b-hexadecahydro-1H,9H-8,11-methanocyclopropa[4′,5′]cyclopenta [1′,2′:18,19][1,10,3,6]dioxadiazacyclononadecino[11,12-b]quinoxaline-9-carboxamide]	0.9 nM	0.55 nM	1.4 nM	5 nM	0.01 nM
